Results from patent publication US11357779B2 (G1 Therapeutics, Inc., priority 2018, dated 2022).
“Also recorded” adds a separate entry of the source. Where two headings read alike, the source gives them in different places.

How the values were obtained:
tumor = conditions: mice, single dosage of 100 mg/kg; cited from earlier work
[1] = human, in vivo
Method: Absolute neutrophil count (ANC) was determined from the blood sample obtained from subjects described in Example 1 on day 22 using standard methods.
Absolute neutrophil count (ANC) was also determined for blood samples obtained from subjects in all dosing cohorts (200 mg QD, 300 mg QD, 400 mg QD, 500 mg QD, 100 mg BID, and 150 mg BID dosage of Form B of Compound II).

[2] = Steady-state AUC0-24,ss, (AUC0-24,ss)/dose, half-life and time to steady state: Compound I versus palbociclib, ribociclib, abemaciclib; assay type: in vivo, human; conditions: for (Mean AUC0-24,ss)/Dose (mg) / Cmax / AUC(0-t): Day 29; for AUC(0-t): read-out: Mean AUC0-24,ss
Description: The time to reach steady state was defined as five half-lives (97% steady state achieved). […] The AUC data are presented as the arithmetic mean. […] The AUC data are presented as the geometric mean. The steady-state AUC0-24 for various BID doses of abemaciclib provided in Table 89 was obtained from the above cited prior published studies. The AUC data are presented as the geometric mean.

BT474 tumor = assay: Murine HER2+ ER+ CBX model, tumor growth and survival; assay type: in vivo; conditions: BT474 tumor-containing mice; Compound I 50 mg/kg by mouth once a day for 56 days
Method: Mice containing a BT474 tumor were treated with vehicle, Compound I (50 mg/kg by mouth once a day for 56 days), lapatinib+trastuzumab, or Compound I+lapatinib+trastuzumab.

[3] = Dynamic vapor sorption (moisture sorption) experiment; conditions: for stability in the moisture sorption experiment (XRPD of dried sample): after DVS
Method: Dynamic vapor sorption experiments were performed on Form A, Form B, and Form D. Table 103 provides the results of the DVS experiment.

[4] = Stability study under thermal stress, 60° C. for 7 days; assay type: physicochemical
Method: Forms A, B, and D were stored in an oven maintained at 60° C. for 7 days.

[5] = Six- and twelve-month stability study of Form B at 25° C./60% RH and 40° C./75% RH; assay type: physicochemical
Method: Form B was stored at 25° C./60% RH for twelve months and at 40° C./75% RH for six months.

[6] = 200 mg QD of Form B of Compound II, five half-lives
[7] = human, plasma, oral, 200 mg QD of Form B of Compound II
[8] = human, plasma, oral, 300 mg QD of Form B of Compound II
[9] = human, plasma, oral, 400 mg QD of Form B of Compound II
[10] = human, plasma, oral, 500 mg QD of Form B of Compound II
[11] = human, plasma, oral, 650 mg QD of Form B of Compound II

## CC(C)N1CCN(c2ccc(Nc3ncc4cc5n(c4n3)C3(CCCCC3)CNC5=O)nc2)CC1 [Compound I, 2′-((5-(4-isopropylpiperazin-1-yl)pyridin-2-yl)amino)-7′,8′-dihydro-6′H-spiro[cyclohexane-1,9′-pyrazino[1′,2′:1,5]pyrrolo[2,3-d]pyrimidin]-6′-one]
tumor
  distribution to tumor: concentrates in the tumor
[1]; 200 mg
  (AUC0-24,ss)/ANC: 0.10
[1]; 300 mg
  (AUC0-24,ss)/ANC: 0.47
[1]; 400 mg
  (AUC0-24,ss)/ANC: 0.15
[2]; 200 mg QD of Form B of Compound II
  (Mean AUC0-24,ss)/Dose (mg): 1.15 ng·h/mL/mg
[2]; [6]
  Time to Steady State: 3.2 days
  Time to Steady-State: 76 h
[2]; 300 mg QD of Form B of Compound II
  (Mean AUC0-24,ss)/Dose (mg): 1.97 ng·h/mL/mg
[2]; 400 mg QD of Form B of Compound II
  (Mean AUC0-24,ss)/Dose (mg): 0.695 ng·h/mL/mg
[2]; 500 mg QD of Form B of Compound II
  (Mean AUC0-24,ss)/Dose (mg): 1.21 ng·h/mL/mg
[2]; 650 mg QD of Form B of Compound II
  (Mean AUC0-24,ss)/Dose (mg): 1.47 ng·h/mL/mg
[2]; Compound I, Day 29, QD dosing of Form B of Compound II
  (AUC0-24,ss)/Dose: ≤ 5
[2]; [7]
  half-life: 15.2 h
  Cmax: 20.4 ng/mL
  AUC(0-t): 229 ng·h/mL
[2]; [8]
  Cmax: 47 ng/mL
  AUC(0-t): 592 ng·h/mL
[2]; [9]
  Cmax: 19 ng/mL
  AUC(0-t): 278 ng·h/mL
[2]; [10]
  Cmax: 43.2 ng/mL
  AUC(0-t): 607 ng·h/mL
[2]; [11]
  Cmax: 66 ng/mL
  AUC(0-t): 956 ng·h/mL
BT474 tumor
  Median OS: 25 days

## CC(C)N1CCN(c2ccc(Nc3ncc4cc5n(c4n3)C3(CCCCC3)CNC5=O)nc2)CC1 [Compound II, 2′-((5-(4-isopropylpiperazin-1-yl)pyridin-2-yl)amino)-7′,8′-dihydro-6′H-spiro[cyclohexane-1,9′-pyrazino[1′,2′:1,5]pyrrolo[2,3-d]pyrimidin]-6′-one]
[3]; dried at 60° C. and 0% RH
  stability in the moisture sorption experiment (XRPD of dried sample): remained in Form B

## CC(C)N1CCN(c2ccc(Nc3ncc4cc5n(c4n3)C3(CCCCC3)CNC5=O)nc2)CC1 [Form B]
[3]; 60% RH
  moisture adsorbed: 5.8 wt %
[3]; 90% RH
  moisture adsorbed: 5.9 wt %
[3]; DVS, 60% RH
  % wt change at 60% RH: 5.8 % wt
[3]; DVS, 90% RH
  % wt change at 90% RH: 5.9 % wt
[3]; dried at 60° C. and 0% RH
  stability in the moisture sorption experiment (XRPD of dried sample): stable
[3]; after moisture sorption experiment, dried at 60° C. and 0% RH
  XRPD (post DVS): Form B
[4]
  XRPD pattern after thermal stress: stable; also recorded: No change in the XRPD pattern; also recorded: remained unchanged
[5]; 25° C. and 60% relative humidity
  long-term stability, time stable: at least 1 year
[5]; 25° C./60% RH, 0M
  Appearance: Yellow
  HPLC Purity: 99.5%
  Moisture (%): 4.9%
  XRPD: Form B
[5]; 25° C./60% RH, 3M
  Appearance: Yellow
  HPLC Purity: 99.5%
  Moisture (%): 4.07%
[5]; 25° C./60% RH, 6M
  Appearance: Yellow
  HPLC Purity: 99.5%
  Moisture (%): 7.53%
[5]; 25° C./60% RH, 9M
  Appearance: Yellow
  HPLC Purity: 99.6%
  Moisture (%): 7.29%
[5]; 25° C./60% RH, 12M
  Appearance: Yellow
  HPLC Purity: 99.5%
  Moisture (%): 7.48%
  XRPD: Form B
[5]; 25° C./60% RH, twelve months
  XRPD spectrum at the longest time point studied: conformed to the reference spectrum
  purity at the longest time point studied: 99.5%
[5]; 40° C./75% RH, 0M
  Appearance: Yellow solid
  HPLC Purity: 99.5%
  Moisture (%): 4.9%
  XRPD: Form B
[5]; 40° C./75% RH, 1M
  Appearance: Yellow solid
  HPLC Purity: 99.5%
  Moisture (%): 2.75%
[5]; 40° C./75% RH, 3M
  Appearance: Yellow solid
  HPLC Purity: 99.5%
  Moisture (%): 7.47%
  XRPD: Form B
[5]; 40° C./75% RH, 6M
  Appearance: Yellow solid
  HPLC Purity: 99.5%
  Moisture (%): 7.53%
  XRPD: Form B
[5]; 40° C./75% RH, six months
  XRPD spectrum at the longest time point studied: conformed to the reference spectrum
  purity at the longest time point studied: 99.5%
